From US8822517B2, “Arylosulfonamides for the treatment of CNS diseases” (Adamed SP. Z O.O., priority 2010, dated 2014) come the findings set out here.

The target in experiment [1] is serotoninergic 5-HT6 receptor (Homo sapiens, UniProt P50406). Description: Binding assay 5-HT6 (h), [3H]LSD, CHO cells. Further details: expressed in transfected cells; host or cells: CHO cells. The following applies: read-out: 5-HT6. The procedure: (§1) The specific ligand binding to the receptors is defined as the difference between the total binding and the nonspecific binding determined in the presence of an excess of so unlabelled ligand.
serotoninergic 5-HT6 receptor, sequence (P50406 whole entry): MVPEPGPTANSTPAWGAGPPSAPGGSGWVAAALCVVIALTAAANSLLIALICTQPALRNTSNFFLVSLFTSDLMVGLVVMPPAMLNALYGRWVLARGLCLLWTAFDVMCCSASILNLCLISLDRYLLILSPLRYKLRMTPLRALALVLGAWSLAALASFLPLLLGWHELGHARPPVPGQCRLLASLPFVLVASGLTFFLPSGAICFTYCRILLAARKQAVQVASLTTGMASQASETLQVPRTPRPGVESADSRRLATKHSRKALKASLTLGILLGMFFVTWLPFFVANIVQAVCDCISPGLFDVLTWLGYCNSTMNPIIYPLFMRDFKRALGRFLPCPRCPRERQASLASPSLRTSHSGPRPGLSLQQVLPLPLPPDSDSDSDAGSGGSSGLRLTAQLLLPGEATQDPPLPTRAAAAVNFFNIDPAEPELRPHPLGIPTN
(§2) The specific Ligand binding to the receptor is defined as the difference between total and non-specific binding determined in the presence of an excess of unlabelled ligand. The compounds were tested at a concentration of 1×10^−6 M, and scintillation counting was the method of detection of ligand binding.

The target of a further experiment is dopaminergic D2 receptor (Homo sapiens, UniProt P14416). Description: Binding assay D2S (h), [3H]methyl-spiperone, HEK-293 cells. To be noted: read-out: D2 [%]. The arrangement: expressed in transfected cells; host or cells: HEK-293 cells. The procedure: as §1, §2
dopaminergic D2 receptor, sequence (P14416 1-414 isoform P14416-2): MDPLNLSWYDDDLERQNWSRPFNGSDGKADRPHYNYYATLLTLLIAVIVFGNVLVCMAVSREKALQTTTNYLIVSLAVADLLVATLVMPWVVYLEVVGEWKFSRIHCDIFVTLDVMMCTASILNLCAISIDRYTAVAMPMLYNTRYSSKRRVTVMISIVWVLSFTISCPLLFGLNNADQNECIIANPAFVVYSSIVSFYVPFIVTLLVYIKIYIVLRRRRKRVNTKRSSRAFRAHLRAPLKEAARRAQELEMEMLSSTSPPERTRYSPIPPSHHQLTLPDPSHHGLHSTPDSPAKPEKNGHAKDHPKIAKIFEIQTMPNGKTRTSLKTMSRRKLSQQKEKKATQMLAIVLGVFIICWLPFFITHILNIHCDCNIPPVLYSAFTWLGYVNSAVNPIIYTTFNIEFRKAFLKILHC
In experiment [2] the target is serotoninergic 5-HT2A receptor (Homo sapiens, UniProt P28223). Description: Binding assay 5-HT2A (h), [3H]ketanserin, HEK-293 cells. The arrangement: expressed in transfected cells; host or cells: HEK-293 cells. The following applies: read-out: 5-HT2A. The procedure:
as §1, §2

The target of experiment [3] is T1, serotonine transporter (SERT) receptor (Homo sapiens, UniProt P31645).
T1 construct: expressed in transfected cells; host or cells: CHO cells
T1 sequence (P31645 whole entry): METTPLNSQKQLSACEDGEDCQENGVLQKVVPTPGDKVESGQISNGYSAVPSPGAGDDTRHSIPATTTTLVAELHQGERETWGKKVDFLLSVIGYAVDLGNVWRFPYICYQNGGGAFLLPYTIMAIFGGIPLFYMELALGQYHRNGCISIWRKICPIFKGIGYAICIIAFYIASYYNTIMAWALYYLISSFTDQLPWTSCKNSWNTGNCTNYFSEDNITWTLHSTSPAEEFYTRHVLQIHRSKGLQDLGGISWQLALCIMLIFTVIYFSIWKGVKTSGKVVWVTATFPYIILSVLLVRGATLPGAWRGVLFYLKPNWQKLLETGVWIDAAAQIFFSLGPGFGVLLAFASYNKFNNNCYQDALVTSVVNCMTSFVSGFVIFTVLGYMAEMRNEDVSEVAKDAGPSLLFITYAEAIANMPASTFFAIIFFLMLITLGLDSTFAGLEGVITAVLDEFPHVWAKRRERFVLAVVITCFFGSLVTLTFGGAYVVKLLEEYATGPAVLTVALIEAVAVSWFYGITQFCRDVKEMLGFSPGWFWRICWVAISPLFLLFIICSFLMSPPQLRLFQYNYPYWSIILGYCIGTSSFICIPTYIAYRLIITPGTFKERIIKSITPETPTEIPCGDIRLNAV
In words: Binding assay SERT (h), [3H]imipramine, CHO cells. To be noted: read-out: SERT [%]. The procedure: as §1, §2

Another experiment relates to adrenergic α1 receptor. In words: Binding assay α1 (non-selective), [3H]prazosin, rat cerebral cortex. To be noted: percent inhibition of control specific binding; compounds tested at 1×10^−6 M. The procedure: as §1, §2
The target of experiment [4] is serotoninergic 5-HT7 receptor (Homo sapiens, UniProt P34969). In words: Binding assay 5-HT7 (h), [3H]LSD, CHO cells. To be noted: read-out: 5-HT7. Further details: expressed in transfected cells; host or cells: CHO cells. The procedure: as §1, §2
serotoninergic 5-HT7 receptor, sequence (P34969 whole entry): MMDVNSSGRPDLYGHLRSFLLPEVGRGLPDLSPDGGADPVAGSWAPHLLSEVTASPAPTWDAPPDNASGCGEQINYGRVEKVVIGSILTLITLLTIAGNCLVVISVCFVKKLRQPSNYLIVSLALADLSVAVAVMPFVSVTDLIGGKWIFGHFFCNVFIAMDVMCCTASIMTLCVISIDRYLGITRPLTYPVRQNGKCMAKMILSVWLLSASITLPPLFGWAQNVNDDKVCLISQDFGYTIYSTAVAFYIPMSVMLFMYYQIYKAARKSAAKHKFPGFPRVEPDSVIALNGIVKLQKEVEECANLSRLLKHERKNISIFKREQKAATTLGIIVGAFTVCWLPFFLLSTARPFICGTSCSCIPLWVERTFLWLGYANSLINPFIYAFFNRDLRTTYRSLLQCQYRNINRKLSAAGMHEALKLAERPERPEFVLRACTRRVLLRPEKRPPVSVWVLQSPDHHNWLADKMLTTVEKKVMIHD
The target of another experiment is dopaminergic D3 receptor (Homo sapiens, UniProt P35462). Description: Binding assay D3 (h), [3H]methyl-spiperone, CHO cells. The arrangement: expressed in transfected cells; host or cells: CHO cells. The following applies: read-out: D3 [%]. The procedure: as §1, §2
dopaminergic D3 receptor, sequence (P35462 whole entry): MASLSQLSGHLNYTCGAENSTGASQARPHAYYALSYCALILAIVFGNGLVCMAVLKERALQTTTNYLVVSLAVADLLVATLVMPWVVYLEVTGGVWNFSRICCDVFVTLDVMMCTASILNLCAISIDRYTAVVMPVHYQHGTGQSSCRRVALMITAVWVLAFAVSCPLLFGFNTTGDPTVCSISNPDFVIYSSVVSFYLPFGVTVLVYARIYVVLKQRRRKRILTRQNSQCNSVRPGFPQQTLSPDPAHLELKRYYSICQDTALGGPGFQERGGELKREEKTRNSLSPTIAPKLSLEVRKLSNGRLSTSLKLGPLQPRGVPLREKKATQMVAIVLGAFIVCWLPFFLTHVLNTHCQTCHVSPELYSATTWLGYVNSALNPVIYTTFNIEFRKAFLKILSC
The target in experiment [5] is T2, serotoninergic 5-HT1A receptor (Homo sapiens, UniProt P08908).
T2 sequence (P08908 1-422): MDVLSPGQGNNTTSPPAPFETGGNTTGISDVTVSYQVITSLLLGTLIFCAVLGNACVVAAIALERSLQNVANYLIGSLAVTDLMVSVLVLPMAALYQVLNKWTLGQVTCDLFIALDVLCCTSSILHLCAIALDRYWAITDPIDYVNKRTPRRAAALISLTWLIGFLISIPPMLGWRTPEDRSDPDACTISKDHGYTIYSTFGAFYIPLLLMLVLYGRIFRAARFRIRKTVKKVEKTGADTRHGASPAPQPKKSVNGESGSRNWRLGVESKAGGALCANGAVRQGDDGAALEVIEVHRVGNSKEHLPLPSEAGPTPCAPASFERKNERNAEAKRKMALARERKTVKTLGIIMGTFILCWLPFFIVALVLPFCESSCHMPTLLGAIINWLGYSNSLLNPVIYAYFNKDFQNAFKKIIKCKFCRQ
Description: Binding assay 5-HT1A (h), [3H]8-OH-DPAT, HEK-293 cells. Further details: expressed in transfected cells; host or cells: HEK-293 cells. The following applies: read-out: 5-HT1A. The procedure: as §1, §2

serotoninergic 5-HT2A receptor, sequence (P28223 whole entry): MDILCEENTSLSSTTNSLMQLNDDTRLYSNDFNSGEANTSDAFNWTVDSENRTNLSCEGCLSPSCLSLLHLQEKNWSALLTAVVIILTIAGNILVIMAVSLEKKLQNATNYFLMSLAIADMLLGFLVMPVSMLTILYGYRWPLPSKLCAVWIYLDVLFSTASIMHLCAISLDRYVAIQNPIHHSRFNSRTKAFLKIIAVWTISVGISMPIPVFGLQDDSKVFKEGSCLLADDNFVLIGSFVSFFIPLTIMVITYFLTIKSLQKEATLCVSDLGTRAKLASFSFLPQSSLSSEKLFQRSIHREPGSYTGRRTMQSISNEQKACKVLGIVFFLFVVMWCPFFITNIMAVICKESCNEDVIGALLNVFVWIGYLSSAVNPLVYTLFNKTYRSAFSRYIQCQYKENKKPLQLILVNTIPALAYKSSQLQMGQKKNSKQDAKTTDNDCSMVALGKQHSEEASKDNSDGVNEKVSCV

As for `O=S(=O)(NCCCCN1CCN(c2cccc3[nH]ccc23)CC1)c1cccc(C(F)(F)F)c1` [Compound 361, N-[4-[4-(1H-Indol-4-yl)piperazin-1-yl]butyl]-3-(trifluoromethyl)benzenesulphonamide], the inhibition at 1 µM in experiment [1] was determined as 70%; at dopaminergic D2 receptor it was 99%; in experiment [2], 49%; in experiment [3], 6%; in experiment [4] it was 86%; on dopaminergic D3 receptor it was 98%. Further, in experiment [5], the inhibition at 1 µM was 95%. For the same compound, the “α1 [%]” value in the experiment on adrenergic α1 receptor amounted to 98%.
Turning to `O=S(=O)(NCCCCN1CCN(c2noc3ccccc23)CC1)c1ccc(Cl)cc1` [Compound 273, N-[4-[4-(1,2-Benzoxazol-3-yl)piperazin-1-yl]butyl]-4-chlorobenzenesulphonamide], the inhibition at 1 µM in experiment [1] was determined as 74%; at dopaminergic D2 receptor it was 88%; in experiment [2], 95%; in experiment [3], 22%; in experiment [4], 97%; on dopaminergic D3 receptor it was 85%. For the same compound, in experiment [5], the inhibition at 1 µM turned out to be 46%. Besides, the “α1 [%]” value in the experiment with adrenergic α1 receptor is on record as 101%.
As for `O=S(=O)(NCCCCN1CCC(c2noc3cc(F)ccc23)CC1)c1ccc2cn[nH]c2c1` [Compound 319, N-[4-[4-(6-Fluoro-1,2-benzoxazol-3-yl)piperidin-1-yl]butyl]-1H-indazole-6-sulphonamide], the inhibition at 1 µM in experiment [1] came to 87%; at dopaminergic D2 receptor, 109%; in experiment [2] it was 88%; in experiment [3] it was 8%; in experiment [4], 90%; on dopaminergic D3 receptor, 90%. For the same compound, the inhibition at 1 µM in experiment [5] came to 55%. Moreover, the “α1 [%]” value in the experiment on adrenergic α1 receptor is reported as 94%.
As for `N#Cc1ccc(S(=O)(=O)NCCCCN2CCC(c3noc4cc(F)ccc34)CC2)cc1` [Compound 305, 4-Cyano-N-[4-[4-(6-fluoro-1,2-benzoxazol-3-yl)piperidin-1-yl]butyl]benzenesulphonamide], the inhibition at 1 µM is 78% in experiment [1]; 88% at dopaminergic D2 receptor; 96% in experiment [2]; -18% in experiment [3]; 85% in experiment [4]; 103% at dopaminergic D3 receptor. For the same compound, the inhibition at 1 µM in experiment [5] is 58%. Besides, the “α1 [%]” value with adrenergic α1 receptor is listed as 99%.
As to `Cc1cccc(S(=O)(=O)NCCCN2CCN(c3cccc4c3OCCO4)CC2)c1` [Compound 414, N-[3-[4-(2,3-Dihydro-1,4-benzodioxin-8-yl)piperazin-1-yl]propyl]-3-methylbenzenesulphonamide], the inhibition at 1 µM is -15% in experiment [1]; 48% on dopaminergic D2 receptor; 76% in experiment [2]; 18% in experiment [3]; 94% in experiment [4]; 81% at dopaminergic D3 receptor. In experiment [5], the inhibition at 1 µM came to 98%. In addition, in the experiment on adrenergic α1 receptor, the “α1 [%]” value was 88%.
As to `O=S(=O)(NCCCCN1CCN(c2nsc3ccccc23)CC1)c1cccc(Cl)c1` [Compound 69, N-[4-[4-(1,2-Benzothiazol-3-yl)piperazin-1-yl]butyl]-3-chlorobenzenesulphonamide], the inhibition at 1 µM in experiment [1] came to 88%; on dopaminergic D2 receptor, 106%; in experiment [2], 92%; in experiment [3], 6%; in experiment [4] it was 96%; at dopaminergic D3 receptor it was 77%. Further, the inhibition at 1 µM in experiment [5] is 80%. In the experiment on adrenergic α1 receptor, the “α1 [%]” value is listed as 94%.
As to `O=S(=O)(NCCCN1CCC(c2noc3cc(F)ccc23)CC1)c1ccc(F)cc1` [Compound 326, 4-Fluoro-N-[3-[4-(6-fluoro-1,2-benzoxazol-3-yl)piperidin-1-yl]propyl]benzenesulphonamide], the inhibition at 1 µM in experiment [1] worked out at 94%; on dopaminergic D2 receptor, 109%; in experiment [2] it was 96%; in experiment [3], 19%; in experiment [4], 94%; on dopaminergic D3 receptor, 99%. Also, in experiment [5], the inhibition at 1 µM is 59%. Also, the “α1 [%]” value with adrenergic α1 receptor stood at 101%.
As for `O=S(=O)(NCCCCN1CCN(c2noc3ccccc23)CC1)c1cccc(C(F)(F)F)c1` [Compound 91, N-[4-[4-(1,2-Benzoxazol-3-yl)piperazin-1-yl]butyl]-3-(trifluoromethyl)benzenesulphonamide], the inhibition at 1 µM is 83% in experiment [1]; 92% on dopaminergic D2 receptor; 95% in experiment [2]; 2% in experiment [3]; 99% in experiment [4]; 70% on dopaminergic D3 receptor. Moreover, the inhibition at 1 µM in experiment [5] stood at 40%. In the experiment with adrenergic α1 receptor, the “α1 [%]” value came out at 99%.
Turning to `O=S(=O)(NCCCCN1CCN(c2noc3ccccc23)CC1)c1ccc2c(c1)CCO2` [Compound 289, N-[4-[4-(1,2-Benzoxazol-3-yl)piperazin-1-yl]butyl]-2,3-dihydrobenzofuran-5-sulphonamide], the inhibition at 1 µM in experiment [1] came out at 78%; at dopaminergic D2 receptor, 99%; in experiment [2], 94%; in experiment [3], 9%; in experiment [4], 91%; at dopaminergic D3 receptor, 79%. Moreover, the inhibition at 1 µM in experiment [5] is 68%. Also, the “α1 [%]” value with adrenergic α1 receptor was determined as 100%.
`Cc1[nH]c2ccc(Cl)cc2c1C1=CCN(CCNS(=O)(=O)c2cccc(O)c2)CC1` [Compound 453, N-[2-[4-(5-Chloro-2-methyl-1H-indol-3-yl)-3,6-dihydro-2H-pyridin-1-yl]ethyl]-3-hydroxybenzenesulphonamide]: the inhibition at 1 µM was determined as 107% in experiment [1]; 48% at dopaminergic D2 receptor; 23% in experiment [3]; 76% in experiment [4]; 56% at dopaminergic D3 receptor. The “α1 [%]” value in the experiment with adrenergic α1 receptor was 23%.
Take `O=S(=O)(NCCCCN1CCN(c2cccc3c2OCCO3)CC1)c1ccc2cc(Cl)ccc2c1` [Compound 387, 6-Chloro-N-[4-[4-(2,3-dihydro-1,4-benzodioxin-5-yl)piperazin-1-yl]butyl]naphthalene-2-sulphonamide]: the inhibition at 1 µM in experiment [1] was 26%; in experiment [2], 90%; in experiment [3], -14%; in experiment [4], 96%; on dopaminergic D3 receptor it was 93%; in experiment [5], 100%. In addition, in the experiment on adrenergic α1 receptor, the “α1 [%]” value is recorded as 86%.
Take `Cc1[nH]c2ccc(Cl)cc2c1C1=CCN(CCNS(=O)(=O)c2ccc(Cl)cc2)CC1` [Compound 451, 4-Chloro-N-[2-[4-(5-chloro-2-methyl-1H-indol-3-yl)-3,6-dihydro-2H-pyridin-1-yl]ethyl]-benzensulphonamide]: the inhibition at 1 µM amounted to 97% in experiment [1]; 46% on dopaminergic D2 receptor; 32% in experiment [3]; 25% in experiment [4]; 30% on dopaminergic D3 receptor. Also, in the experiment on adrenergic α1 receptor, the “α1 [%]” value was −4%.
For the compound `Cc1[nH]c2ccc(Cl)cc2c1C1=CCN(CCCNS(=O)(=O)c2ccc(Cl)cc2)CC1` [Compound 444, 4-Chloro-N-[3-[4-(5-chloro-2-methyl-1H-indol-3-yl)-3,6-dihydro-2H-pyridin-1-yl]propyl]-benzenesulphonamide], the inhibition at 1 µM in experiment [1] is 87%; in experiment [2] it was 65%; in experiment [3] it was 44%; in experiment [4], 59%; on dopaminergic D3 receptor, 74%; in experiment [5], 51%. In addition, the “α1 [%]” value in the experiment on adrenergic α1 receptor is reported as 26%.
`Cc1[nH]c2ccc(Cl)cc2c1C1=CCN(CCNS(=O)(=O)c2cccc(F)c2)CC1` [Compound 450, N-[2-[4-(5-Chloro-2-methyl-1H-indol-3-yl)-3,6-dihydro-2H-pyridin-1-yl]ethyl]-3-fluorobenzenesulphonamide]: the inhibition at 1 µM in experiment [1] was 96%; at dopaminergic D2 receptor, 15%; in experiment [3], 54%; in experiment [4] it was 50%; on dopaminergic D3 receptor, 39%. The “α1 [%]” value in the experiment with adrenergic α1 receptor was −1%.
